Read-outs that look alike come from different tables or passages of the source.

Type in all cases: cell-based
In data set [1] the test system is Plasmodium falciparum strain Dd2. Briefly: In vitro potency against P. falciparum strain Dd2. As to conditions: read-out: Potency (IC50; nM) Plasmodium spp. Pf Dd2.
Data set [2] has as its system P. falciparum strain 3D7. Briefly: In vitro potency against P. falciparum strain 3D7 (SYBR green/DAPI). As to conditions: Plasmodium falciparum.
Data set [3] in a line: Mammalian cytotoxicity, dermal fibroblast. The following applies: human, normal human dermal fibroblasts (Clonetics #CC-2509); read-out: Selectivity, Mammalian cytotoxicity (IC50; μM) Dermal Fibroblast.
A short description of data set [4]: Erythrocyte lysis. The following applies: erythrocytes, read-out: Selectivity, Mammalian cytotoxicity (IC50; μM) Eryth. Lysis.
Data set [5] can be described thus: Mammalian cytotoxicity, kidney epithelial. The following applies: normal human renal proximal tubule cells; read-out: Selectivity, Mammalian cytotoxicity (IC50; μM) Kidney epithelial.
[6] abbreviates: read-out: Potency (IC50; nM) Plasmodium spp. Pf 3D7.
Setting [7] is: reductions in parasitemia, read-out: IC50 values.

Take `NC1=Nc2ccc(Cl)cc2C1(O)c1cccc2ccccc12` (centres unmarked) [Compound 11]: the 50% inhibitory concentration (IC50) is 37 nM in data set [1]; 30 nM in data set [2] (setting [6]); 1 to 100 nM in data set [2] (setting [7]); 24 µM in data set [3]; over 129 µM in data set [4]; 24 µM in data set [5].
For `NC1=Nc2ccc(Cl)cc2C1(O)Cc1ccccc1` (centres unmarked) [Compound 38], the IC50 in data set [1] was 110 nM; in data set [2] (setting [6]) it was 38 nM; in data set [2] (setting [7]), 1 to 100 nM; in data set [3], over 62.5 µM; in data set [4] it was over 147 µM; in data set [5], over 62.5 µM.
With `NC1=Nc2ccc(Cl)cc2C1(O)c1ccccc1C1CC1` (centres unmarked) [Compound 205], the IC50 in data set [2] (setting [7]) lay within 1 to 100 nM.
Turning to `Cc1csc2c(CC3(O)C(N)=Nc4ccc(Cl)cc43)cccc12` (centres unmarked) [Compound 206], the IC50 in data set [2] (setting [7]) lay in the range of 100 to 500 nM.
As to `COc1cnc(F)c(C2(O)C(N)=Nc3ccc(Cl)cc32)c1` (centres unmarked) [Compound 207], the IC50 in data set [2] (setting [7]) fell in the range of 100 to 500 nM.
The same measure, in the same setting: as for `CC(C)Oc1ccc(F)c(C2(O)C(N)=Nc3ccc(Cl)cc32)c1` (centres unmarked) [Compound 208], the figure is 1 to 100 nM; as for `CCOc1ccc(F)c(C2(O)C(N)=Nc3ccc(Cl)cc32)c1` (centres unmarked) [Compound 209], 1 to 100 nM; as for `CCOc1cnc(OC)cc1C1(O)C(N)=Nc2ccc(Cl)cc21` (centres unmarked) [Compound 210], 1 to 100 nM.
Take `CCOc1cnc(OC)c(C2(O)C(N)=Nc3ccc(Cl)cc32)c1` (centres unmarked) [Compound 211]: the IC50 in data set [2] (setting [7]) lay within 1 to 100 nM.
Still for that read-out and setting: as for `COc1ccc(C2CC2)c(C2(O)C(N)=Nc3ccc(Cl)cc32)c1` (centres unmarked) [Compound 212], the figure is 1 to 100 nM.
Same read-out and setting: to `NC1=Nc2ccc(Cl)cc2C1(O)c1cc(F)ccc1OC1CCOCC1` (centres unmarked) [Compound 213] belongs 1 to 100 nM; to `NC1=Nc2ccc(Cl)cc2C1(O)c1ccccc1N1CCSCC1` (centres unmarked) [Compound 214], 1 to 100 nM; to `CC(C)Oc1cc(F)ccc1C1(O)C(N)=Nc2ccc(Cl)cc21` (centres unmarked) [Compound 215], 1 to 100 nM.
The same measure, in the same setting: as for `NC1=Nc2ccc(Cl)cc2C1(O)c1ccccc1OC1CC1` (centres unmarked) [Compound 216], the figure is 1 to 100 nM.
Regarding `COc1cc(F)c(C2(O)C(N)=Nc3ccc(Cl)cc32)cc1OC` (centres unmarked) [Compound 217], the IC50 in data set [2] (setting [7]) was in the range of 1 to 100 nM.
The same measure, in the same setting: to `CCCOc1cnc(OC)c(C2(O)C(N)=Nc3ccc(Cl)cc32)c1` (centres unmarked) [Compound 218] belongs 1 to 100 nM; to `NC1=Nc2ccc(Cl)cc2C1(O)c1cc(Cl)ccc1OC1CC1` (centres unmarked) [Compound 219], 1 to 100 nM; to `CCCOc1cnc(OC)cc1C1(O)C(N)=Nc2ccc(Cl)cc21` (centres unmarked) [Compound 220], 1 to 100 nM.
On the same count and under the same terms, as for `COc1cnc(Cl)cc1C1(O)C(N)=Nc2ccc(Cl)cc21` (centres unmarked) [Compound 221], the figure is 100 to 500 nM.
On the same count and under the same terms, to `CC(C)Oc1ccccc1[C@]1(O)C(N)=Nc2ccc(Cl)cc21` [Compound 222] belongs 1 to 100 nM; to `CC(C)Oc1ccccc1[C@@]1(O)C(N)=Nc2ccc(Cl)cc21` [Compound 223], 1 to 100 nM.
As for `CCOc1cnc(Cl)cc1C1(O)C(N)=Nc2ccc(Cl)cc21` (centres unmarked) [Compound 224], the IC50 in data set [2] (setting [7]) was 1 to 100 nM.
Same read-out and setting: as for `CCOc1cc(F)ccc1C1(O)C(N)=Nc2ccc(Cl)cc21` (centres unmarked) [Compound 225], the figure is 1 to 100 nM; as for `Cn1cc(F)c2c(C3(O)C(N)=Nc4ccc(Cl)cc43)cccc21` (centres unmarked) [Compound 226], 100 to 500 nM; as for `CC(C)C1(O)C(N)=Nc2cccc(Cl)c21` (centres unmarked) [Compound 227], 100 to 500 nM.
Consider `CCOc1cc(C2(O)C(N)=Nc3ccc(Cl)cc32)c(OC)cn1` (centres unmarked) [Compound 228], for which the half-maximal inhibitory concentration (IC50) in data set [2] (setting [7]) is 1 to 100 nM.
As to `NC1=Nc2ccccc2C1(O)CC12CC3CC(CC(C3)C1)C2` (centres unmarked) [Compound 229], the half-maximal inhibitory concentration (IC50) in data set [2] (setting [7]) lay in the range of 100 to 500 nM.
Same read-out and setting: to `CC(C)C1(O)C(N)=Nc2cc(Cl)ccc21` (centres unmarked) [Compound 230] belongs 100 to 500 nM.
Still for that read-out and setting: to `Cc1ccc2c(c1)C(O)(C(C)C)C(N)=N2` (centres unmarked) [Compound 231] belongs 100 to 500 nM; to `NC1=Nc2ccc(Cl)cc2C1(O)c1cc(F)ccc1OC1CC1` (centres unmarked) [Compound 232], 1 to 100 nM.
Still for that read-out and setting: to `COc1cc(C2(O)C(N)=Nc3ccc(Cl)cc32)c(F)cn1` (centres unmarked) [Compound 233] belongs 100 to 500 nM; to `CCN(CC)c1ccccc1C1(O)C(N)=Nc2ccc(Cl)cc21` (centres unmarked) [Compound 234], 1 to 100 nM.
For `CN(C)c1ncccc1C1(O)C(N)=Nc2ccc(Cl)cc21` (centres unmarked) [Compound 236], the IC50 in data set [2] (setting [7]) lay in the range of 100 to 500 nM.
The same measure, in the same setting: to `NC1=Nc2ccc(Cl)cc2C1(O)C#Cc1ccccc1` (centres unmarked) [Compound 237] belongs 1000 to 5000 nM; to `COc1ncc(Cl)cc1C1(O)C(N)=Nc2ccc(Cl)cc21` (centres unmarked) [Compound 238], 1 to 100 nM; to `COc1ncccc1C1(O)C(N)=Nc2ccc(Cl)cc21` (centres unmarked) [Compound 239], 100 to 500 nM.
As to `Cn1c(C2(O)C(N)=Nc3ccc(Cl)cc32)nc2cc(Br)ccc21` (centres unmarked) [Compound 241], in data set [2] (setting [7]), the IC50 was 100 to 500 nM.
On to `CCOc1ncc(Cl)cc1C1(O)C(N)=Nc2ccc(Cl)cc21` (centres unmarked) [Compound 242], for which the IC50 in data set [2] (setting [7]) lay in the range of 1 to 100 nM.
On the same count and under the same terms, to `CCOc1cc(C2(O)C(N)=Nc3ccc(Cl)cc32)c(Cl)cn1` (centres unmarked) [Compound 243] belongs 1 to 100 nM; to `CCOc1ccc(Cl)cc1C1(O)C(N)=Nc2ccc(C)cc21` (centres unmarked) [Compound 244], 1 to 100 nM.
In the case of `Cc1ccc2c(c1)C(O)(c1cc(Cl)ccc1OC(C)C)C(N)=N2` (centres unmarked) [Compound 245], the IC50 in data set [2] (setting [7]) fell in the range of 1 to 100 nM.
On the same count and under the same terms, to `CC(C)[C@]1(O)C(N)=Nc2ccc(Cl)cc21` [Compound 246] belongs 100 to 500 nM; to `CC(C)[C@@]1(O)C(N)=Nc2ccc(Cl)cc21` [Compound 247], 100 to 500 nM.
Same read-out and setting: to `CC(C)(C)Oc1ccccc1C1(O)C(N)=Nc2ccc(Cl)cc21` (centres unmarked) [Compound 248] belongs 1 to 100 nM.
Same read-out and setting: to `CCOc1ccc(F)cc1C1(O)C(N)=Nc2ccc(C)cc21` (centres unmarked) [Compound 249] belongs 1 to 100 nM; to `CCOc1cc(F)c(F)cc1C1(O)C(N)=Nc2ccc(Cl)cc21` (centres unmarked) [Compound 250], 1 to 100 nM; to `CCOc1cc(F)ccc1C1(O)C(N)=Nc2ccc(C)cc21` (centres unmarked) [Compound 251], 1 to 100 nM.
For the compound `Cn1cc2cc(Cl)cc(C3(O)C(N)=Nc4ccc(Cl)cc43)c2n1` (centres unmarked) [Compound 252], in data set [2] (setting [7]), the IC50 is 1 to 100 nM.
On the same count and under the same terms, to `COc1ccc2c(c1)C(O)(c1cc(Cl)ccc1C1CC1)C(N)=N2` (centres unmarked) [Compound 253] belongs 1 to 100 nM; to `COc1cnc(OC)c(C2(O)C(N)=Nc3ccc(C)cc32)c1` (centres unmarked) [Compound 254], 1 to 100 nM; to `CCOc1cc(F)c(F)cc1C1(O)C(N)=Nc2ccc(C)cc21` (centres unmarked) [Compound 255], 1 to 100 nM.
Regarding `Cc1ccc2c(c1)C(O)(c1ccccc1C1CC1)C(N)=N2` (centres unmarked) [Compound 256], the IC50 in data set [2] (setting [7]) fell in the range of 1 to 100 nM.
On the same count and under the same terms, to `Cc1ccc2c(c1)C(O)(c1cccc3ccccc13)C(N)=N2` (centres unmarked) [Compound 257] belongs 1 to 100 nM; to `Cn1ncc2cc(Cl)cc(C3(O)C(N)=Nc4ccc(Cl)cc43)c21` (centres unmarked) [Compound 258], 1 to 100 nM.
As to `CCOc1cc(Cl)ccc1C1(O)C(N)=Nc2ccc(Cl)cc21` (centres unmarked) [Compound 259], in data set [2] (setting [7]), the IC50 lay within 1 to 100 nM.
Still for that read-out and setting: as for `CCOc1ccc(C2(O)C(N)=Nc3ccc(Cl)cc32)c(Cl)c1` (centres unmarked) [Compound 260], the figure is 100 to 500 nM; as for `Cc1ccc2c(c1)C(O)(c1cc(Cl)ccc1OC(C)(C)C)C(N)=N2` (centres unmarked) [Compound 261], 1 to 100 nM.
On the same count and under the same terms, as for `Cc1ccc2c(c1)C(O)(c1cc(Cl)ccc1C1CC1)C(N)=N2` (centres unmarked) [Compound 262], the figure is 1 to 100 nM.
Still for that read-out and setting: as for `COc1cc(C2(O)C(N)=Nc3ccc(Cl)cc32)c2ccccc2n1` (centres unmarked) [Compound 263], the figure is 1 to 100 nM; as for `NC1=Nc2ccccc2C1(O)c1cc(F)cc2ccccc12` (centres unmarked) [Compound 264], 100 to 500 nM; as for `CCOc1cc(F)c(Cl)cc1C1(O)C(N)=Nc2ccc(C)cc21` (centres unmarked) [Compound 265], 1 to 100 nM.
For `Cc1ccc2c(c1)C(O)(c1cc(F)cc3ccccc13)C(N)=N2` (centres unmarked) [Compound 268], the IC50 in data set [2] (setting [7]) was 1 to 100 nM.
Same read-out and setting: to `COc1ccc2c(c1)C(O)(c1cc(F)cc3ccccc13)C(N)=N2` (centres unmarked) [Compound 269] belongs 1 to 100 nM; to `Cc1ccc2c(c1)C(O)(c1cc(Cl)cnc1N(C)C)C(N)=N2` (centres unmarked) [Compound 270], 1 to 100 nM.
`COc1cc(C2(O)C(N)=Nc3ccc(Cl)cc32)c2c(cnn2C)c1` (centres unmarked) [Compound 271]: the IC50 in data set [2] (setting [7]) fell in the range of 100 to 500 nM.
The same measure, in the same setting: as for `Cn1ccc2cc(F)cc(C3(O)C(N)=Nc4ccc(Cl)cc43)c21` (centres unmarked) [Compound 272], the figure is 100 to 500 nM; as for `Cc1ccc2c(c1)C(O)(c1cc(Cl)cc3ccccc13)C(N)=N2` (centres unmarked) [Compound 273], 1 to 100 nM.

The values are drawn from patent US8980926B2, “2-aminoindole compounds and methods for the treatment of malaria” (Genzyme Corporation, priority 2009, dated 2015).
